System: Plasmodium berghei
Assay: Luciferase/luciferin-expressing antifolate-resistant parasites were used to infect a culture of HepG2 cells that were pre-incubated with compounds. Infected hepatocytes emit light due to the luciferase reaction. Assay results are presented as the percent inhibition of light emission compared to control. […]
Format: functional
Details: sporozoite; for IC90: read-out: LUCIFERASE INFECTION ASSAY - IC90
[1] = read-out: LUCIFERASE INFECTION ASSAY - IC50

Compound	IC90	IC50 [1]	also measured
Cc1nc2ncnn2c(N2CCc3ccccc3C2)c1Cl	6.09 µM	–	IC50 (FFLUC_HILL_SLOPE 16.4, FFLUC_R_SQUARED 0.0433, HEPG2TOX_HILL_SLOPE 1.21, HEPG2TOX_R_SQUARED 0.855, PBLUC_HILL_SLOPE 2.02, PBLUC_R_SQUARED 0.689, read-out: LUCIFERASE INFECTION ASSAY - IC50): 2.05 µM
Cc1ccc2nc(NC(=O)c3ccccc3)c(C(=O)NC3CCCC3)n2c1	3.58 µM	3.06 µM	–
CCc1ccc(NC(=O)COc2c(Cl)cc(Cl)c3ccc(C)nc23)cc1	1.31 µM	–	IC50 (HEPG2TOX_HILL_SLOPE 1.5, HEPG2TOX_R_SQUARED 0.996, PBLUC_HILL_SLOPE 3.18, PBLUC_R_SQUARED 0.331, read-out: LUCIFERASE INFECTION ASSAY - IC50): 0.657 µM
Cc1ccc(Oc2ccc(NC(=O)c3cc(C)on3)cc2)cc1	4.67 µM	–	IC50 (PBLUC_HILL_SLOPE 2.32, PBLUC_R_SQUARED 0.861, read-out: LUCIFERASE INFECTION ASSAY - IC50): 1.81 µM
Cc1ccc2c(c1)C1CN(C)CCC1N2C(=O)c1cc2c(s1)CCCC2 (stereo not drawn)	> 10 µM	–	IC50 (PBLUC_HILL_SLOPE 0.917, 1.13, PBLUC_R_SQUARED 0.241, 0.572, read-out: LUCIFERASE INFECTION ASSAY - IC50): 2.93 µM
COc1ccc(-c2cc(CN3C(=O)N(C)C4(CCCCC4)C3=O)on2)cc1	> 10 µM	–	IC50 (HEPG2TOX_HILL_SLOPE 0.667, HEPG2TOX_R_SQUARED 0.327, read-out: LUCIFERASE INFECTION ASSAY - IC50): > 10 µM
Cc1cccc(C)c1N1C(=O)CC(N2CCCC(c3nc4ccccc4s3)C2)C1=O (stereo not drawn)	9.05 µM	–	IC50 (PBLUC_HILL_SLOPE 1.45, PBLUC_R_SQUARED 0.739, read-out: LUCIFERASE INFECTION ASSAY - IC50): 1.99 µM
COc1ccc(OCCn2nc(-c3cccs3)c3ccccc3c2=O)cc1	> 10 µM	3.71 µM	–
C/C(=N\NC(=O)c1ccc(C(F)(F)F)cc1)c1ccccc1O	3.38 µM	–	IC50 (HEPG2TOX_HILL_SLOPE 0.838, HEPG2TOX_R_SQUARED 0.996, PBLUC_HILL_SLOPE 3.61, PBLUC_R_SQUARED 0.312, read-out: LUCIFERASE INFECTION ASSAY - IC50): 1.84 µM
CC(OC(=O)c1cccc(NC(=O)c2cccs2)c1)C(=O)C12CC3CC(CC(C3)C1)C2 (stereo not drawn)	3.57 µM	–	IC50 (PBLUC_HILL_SLOPE 20.8, PBLUC_R_SQUARED 0.61, read-out: LUCIFERASE INFECTION ASSAY - IC50): 3.22 µM
Cn1ccnc1CN(C(=O)c1cnn(-c2ccccc2)c1)C1CC1	> 10 µM	> 10 µM	–
O=C(Cn1ncc(Cl)c(Cl)c1=O)N(CCc1ccccc1)Cc1ccccc1	6.37 µM	–	IC50 (HEPG2TOX_HILL_SLOPE 33, HEPG2TOX_R_SQUARED 0.912, PBLUC_HILL_SLOPE 70.8, PBLUC_R_SQUARED 0.26, read-out: LUCIFERASE INFECTION ASSAY - IC50): 6.18 µM
FC(F)(F)Oc1ccc(-c2ccc(OCc3ccccn3)nc2)cc1	> 9.53 µM	–	IC50 (HEPG2TOX_HILL_SLOPE 9.63, HEPG2TOX_R_SQUARED 0.944, read-out: LUCIFERASE INFECTION ASSAY - IC50): > 9.53 µM
COc1ccc(CN(CC(=O)NCCc2ccc(F)cc2)C(C)Cc2cccs2)cc1 (stereo not drawn)	> 10 µM	> 10 µM	–
COc1ccc(CNc2ccc3ncc(-c4ccc(OC)c(OC)c4)n3n2)cc1	4.78 µM	–	IC50 (HEPG2TOX_HILL_SLOPE 2.6, HEPG2TOX_R_SQUARED 0.69, PBLUC_HILL_SLOPE 12.3, PBLUC_R_SQUARED 0.459, read-out: LUCIFERASE INFECTION ASSAY - IC50): 4 µM
C=S(NC(=O)Nc1ccc(Cl)cc1)c1sc(Cl)c2c1C(=O)CCC2 (stereo not drawn)	> 8.22 µM	> 8.22 µM	–
O=C(NC1CCOc2ccccc21)c1ccccc1Oc1ccccc1 (stereo not drawn)	> 10 µM	–	IC50 (HEPG2TOX_HILL_SLOPE 5.41, HEPG2TOX_R_SQUARED 0.0143, read-out: LUCIFERASE INFECTION ASSAY - IC50): > 10 µM
CNc1ncnc(NNC(=O)Nc2ccc(OC(F)(F)F)cc2)c1[N+](=O)[O-]	> 8.52 µM	3.31 µM	–
c1ccc(-c2cn3nc(NCc4cccs4)sc3n2)cc1	> 10 µM	–	IC50 (PBLUC_HILL_SLOPE 2.88, PBLUC_R_SQUARED 0.313, read-out: LUCIFERASE INFECTION ASSAY - IC50): 4.87 µM
COc1cc(C(=O)c2c(C)c(CCC#N)n3ccccc23)cc(OC)c1OC	6.92 µM	2 µM	–
OCCNCc1cc(Br)ccc1OCc1ccc(F)cc1	3.12 µM	–	IC50 (PBLUC_HILL_SLOPE 16.8, PBLUC_R_SQUARED 0.362, read-out: LUCIFERASE INFECTION ASSAY - IC50): 2.74 µM
CN(Cc1cnn(Cc2ccccc2)c1)C(=O)c1cccc(S(=O)(=O)N2CCc3ccccc32)c1	9.38 µM	–	IC50 (HEPG2TOX_HILL_SLOPE 1.04, HEPG2TOX_R_SQUARED 0.954, PBLUC_HILL_SLOPE 3.29, PBLUC_R_SQUARED 0.175, read-out: LUCIFERASE INFECTION ASSAY - IC50): 4.81 µM

Compound	IC90	IC50 [1]	also measured
O=S(=O)(Nc1cc(C(F)(F)F)cc(C(F)(F)F)c1)c1cc(C(F)(F)F)cc(C(F)(F)F)c1	4.66 µM	–	IC50 (FFLUC_HILL_SLOPE 10.6, FFLUC_R_SQUARED 0.544, PBLUC_HILL_SLOPE 1.62, PBLUC_R_SQUARED 0.523, read-out: LUCIFERASE INFECTION ASSAY - IC50): 1.2 µM
O=c1[nH]c2ccc(-c3csc(-c4ccsc4)n3)cc2[nH]1	> 10 µM	4.23 µM	–
NC(=S)N/N=C/c1ccc(Cl)cc1	> 15.4 µM	–	IC50 (HEPG2TOX_HILL_SLOPE 16.1, HEPG2TOX_R_SQUARED 0.56, PBLUC_HILL_SLOPE 1.65, PBLUC_R_SQUARED 0.115, read-out: LUCIFERASE INFECTION ASSAY - IC50): > 15.4 µM
CC(C)NC(=O)c1c(NC(=O)c2cccc(C(F)(F)F)c2)nc2ccccn12	0.971 µM	–	IC50 (FFLUC_HILL_SLOPE 39.4, FFLUC_R_SQUARED 0.293, HEPG2TOX_HILL_SLOPE 0.926, HEPG2TOX_R_SQUARED 0.794, PBLUC_HILL_SLOPE 4.31, PBLUC_R_SQUARED 0.785, read-out: LUCIFERASE INFECTION ASSAY - IC50): 0.583 µM
CC(C)CC(NC(=O)Cc1ccsc1)C(=O)N/N=C/c1cccs1 (stereo not drawn)	> 9.08 µM	> 9.08 µM	–
CN(C)Cc1nc(O)c2c(n1)-c1ccccc1CC2(C)C	4.32 µM	–	IC50 (PBLUC_HILL_SLOPE 13.2, PBLUC_R_SQUARED 0.272, read-out: LUCIFERASE INFECTION ASSAY - IC50): 3.66 µM
CC(C)NC(=O)N1CCc2nc(NCc3cccc(Oc4ccccc4)c3)ncc2C1	3.31 µM	–	IC50 (HEPG2TOX_HILL_SLOPE 2.9, HEPG2TOX_R_SQUARED 0.984, PBLUC_HILL_SLOPE 15.1, PBLUC_R_SQUARED 0.233, read-out: LUCIFERASE INFECTION ASSAY - IC50): 2.86 µM
O=S(=O)(NC1CCN(c2nn3cc(-c4ccccc4)nc3s2)CC1)c1cccs1	3.14 µM	–	IC50 (HEPG2TOX_HILL_SLOPE 6.79, HEPG2TOX_R_SQUARED 0.144, PBLUC_HILL_SLOPE 1.24, PBLUC_R_SQUARED 0.735, read-out: LUCIFERASE INFECTION ASSAY - IC50): 0.534 µM
CCN(CC)C(=O)CSc1nnc2nnc3cc(C)ccc3n12	> 9.99 µM	> 9.99 µM	–
COc1cc(C)c2c(c1)C=CC1C2CCC2(C)C(O)CCC12 (stereo not drawn)	> 11.1 µM	> 11.1 µM	–
CCOC(=O)C1=C(C)NC2=C(C(=O)C(c3c(F)cccc3Cl)CC2)C1c1ccc(Cl)cc1Cl (stereo not drawn)	> 6.49 µM	–	IC50 (FFLUC_HILL_SLOPE 7.96, FFLUC_R_SQUARED 0.479, HEPG2TOX_HILL_SLOPE 1.9, HEPG2TOX_R_SQUARED 0.947, PBLUC_HILL_SLOPE 15.9, PBLUC_R_SQUARED 0.177, read-out: LUCIFERASE INFECTION ASSAY - IC50): 6.08 µM
COc1cc(/C=N/Nc2c(Cl)c(Cl)nc(C(=O)O)c2Cl)cc(OC)c1OC	> 10 µM	–	IC50 (HEPG2TOX_HILL_SLOPE 0.214, HEPG2TOX_R_SQUARED 0.0951, read-out: LUCIFERASE INFECTION ASSAY - IC50): > 10 µM
CN(C)CCNC(=O)c1ccc(-c2cn3c(-c4ccc(Oc5ccccc5)cc4)cnc3cn2)cc1	> 6.91 µM	5.8 µM	–
Cc1ccc(S(=O)(=O)Nc2ccc(Nc3nccn4c(-c5ccc(F)cc5)cnc34)cc2)cc1	4.49 µM	–	IC50 (PBLUC_HILL_SLOPE 1.86, PBLUC_R_SQUARED 0.706, read-out: LUCIFERASE INFECTION ASSAY - IC50): 1.37 µM
CC(C)c1cc(=O)oc2cc(OS(=O)(=O)c3cc(C(N)=O)n(C)c3)ccc12	> 10 µM	> 10 µM	–
O=S(=O)(Cc1noc(-c2cccs2)n1)c1ccc(F)cc1	> 10.2 µM	> 10.2 µM	–
COc1ccc(N2C(=O)/C(=C\NC3CCCCC3C)c3ccccc3C2=O)cc1OC (stereo not drawn)	> 10 µM	> 10 µM	–
O=C(OC(C(=O)N1CCOCC1)c1ccccc1)c1cccc(-n2cccc2)c1 (stereo not drawn)	> 2 µM	> 2 µM	–
Nc1nnc(SCC(=O)N(Cc2ccccc2)c2nc(-c3ccc(Cl)cc3)cs2)[nH]1	> 10 µM	> 10 µM	–
CN(C)C(=O)c1cccc(-c2cn3c(-c4ccc(CO)cc4)cnc3cn2)c1	> 8.86 µM	–	IC50 (PBLUC_HILL_SLOPE 11.4, PBLUC_R_SQUARED 0.237, read-out: LUCIFERASE INFECTION ASSAY - IC50): 8.26 µM
COc1ccccc1NC(=O)Cc1noc(CNc2ccc(F)cc2C)n1	> 10 µM	> 10 µM	–
CCc1cccc(NS(=O)(=O)c2ccc(-n3ncc(Cl)c(Cl)c3=O)cc2)c1	9.42 µM	–	IC50 (HEPG2TOX_HILL_SLOPE 22.4, HEPG2TOX_R_SQUARED 0.361, PBLUC_HILL_SLOPE 19.8, PBLUC_R_SQUARED 0.355, read-out: LUCIFERASE INFECTION ASSAY - IC50): 8.43 µM

Source: ChEMBL document CHEMBL4483862, “Open-source discovery of chemical leads for next-generation chemoprotective antimalarials” (2018)
